Measured values: US6762173B2 (priority 1997, dated 2004)
Read-outs that look alike come from different tables or passages of the source.

Experiments:
Uncinula necator [1] = assay: In vivo greenhouse test against powdery mildew of grapevine (Example 10); settings: FIG. 7
Procedure: (§1) In Vivo Greenhouse Test of a Composition Comprising Compound (I) and Compound (IIF) (Spiroxamine) Against Powdery Mildew of Grapevine (Uncinula necator):
A suspension of 60 mg comprising compound (I) in a liquid mixture consisting of 0.3 ml of a surfactant (oleate of polyoxyethylenated derivative of sorbitan) diluted to 10% in water and 60 ml of water is prepared.
An emulsifiable concentrate containing 500 g/l of spiroxamine is used.
Dilute suspensions corresponding to a spraying volume of 250 l of spraying liquid per ha are prepared from these compositions by dilution with water.
These 2 liquids are mixed together so as to obtain a compound (I)/spiroxamine ratio equal to 0.33:1:3.
Grapevine plants (Chardonnay variety) are cultivated in pots. When these plants are 2 months old, they are treated by spraying with a liquid comprising one of the compounds (I) and (IIF), either individually or as a mixture in one of the ratios indicated above.
After 24 hours, the grapevine leaves are contaminated by dusting them with powdery mildew spores (Uncinula necator) obtained from naturally contaminated leaves.
After this contamination, the treated and contaminated grapevine plants are placed for 15 days at 20° C. at a relative humidity of about 70%. […]
(§2) The efficacy of the treatment (expressed in %) is calculated according to the so-called Abbott formula. […]

Botrytis cinerea = assay: In vivo greenhouse test against grey rot of grapevine (Example 8); settings: FIG. 5
Procedure: In Vivo Greenhouse Test of a Composition Comprising Compound (I) and Compound (IIC) (Cyprodinil) Against Grey Rot of Grapevine (Botrytis cinerea):
(§3) A 70% dispersible granule of compound (I) and a 75% dispersible granule of cyprodinil are used.
(§4) Dilute suspensions corresponding to a spraying volume of 1000 l of spraying liquid per ha are prepared from these compositions by dilution with water.
These 2 liquids are mixed together so as to obtain a compound (I)/cyprodinil ratio equal to 0.2.
Grapevine plants (Chardonnay variety) are cultivated in pots. When these plants are 2 months old, they are treated by spraying with a liquid comprising one of the compounds (I) and (IIC), either individually or as a mixture in the ratio indicated above.
After 24 hours, leaves are cut off the treated plants, placed on moistened filter paper in a Petri dish and are contaminated by applying 10 drops of an aqueous suspension of spores (containing 150,000 sp/cm^3) of Botrytis cinerea. […]
For this, the number of drops of Botrytis cinerea suspension from which a grey mark, corresponding to attack by the phytopathogenic fungus, developed is counted for a grapevine leaf. […]
as §2

Plasmopara viticola [2] = assay: In vivo greenhouse test on downy mildew of grapevine, preventive treatment at 4 days (Example 5); settings: grapevine Chardonnay, FIG. 2
Procedure: In Vivo Greenhouse Test of the Combination of Compound (I) with Compound (IIA), Propamocarb, on Plasmopara viticola (Downy Mildew of Grapevine) by Preventive Treatment at 4 Days:
A soluble concentrate containing 722 g/l of propamocarb and a 70% dispersible granule of compound (I) are used.
Dilute suspensions corresponding to a spraying volume of 500 l of spraying liquid per ha are prepared from these compositions by dilution with water.
These 2 liquids are mixed together so as to obtain a ratio: compound (I)/propamocarb, equal to: 0.015−0.125−0.5.
Cuttings of grapevine (Vitis vinifera), Chardonnay variety, are cultivated in pots. When these plants are 2 months old, they are treated by spraying with the above liquids, taken individually or as a mixture.
After 4 days, each plant is contaminated by spraying with an aqueous suspension of spores of Plasmopara viticola obtained from sporulated leaves contaminated 7 days beforehand. […]
The results are read 7 days after the contamination, by comparison with the control plants, that is to say untreated but contaminated plants.
The surface area of leaves showing a whitish appearance on their underside, corresponding to attack by the fungus, is assessed visually and the degree of attack is obtained by dividing by the total foliar surface.
The efficacy is then calculated using the Abbott formula and using the result on the control plant. […]

Phytophthora infestans [3] = type: in vivo; settings: potato Bintje, FIG. 1
Uncinula necator [4] = assay: In vivo greenhouse test against powdery mildew of grapevine, read 22 days after contamination (Example 11); settings: FIG. 8
From the text: as §1
Example 10 is repeated, setting the compound (I)/spiroxamine ratio to 0.11:0.33 and 1 and observing the results 22 days after contamination.

Alternaria brassicae = assay: In vivo greenhouse test against Alternaria rot in radish (Example 9); settings: radish Pernot plantules, contamination 24 hours after treatment, FIG. 6
Procedure: In Vivo Greenhouse Test of a Composition Comprising Compound (I) and Compound (IIC) (Cyprodinil) Against Alternaria Rot in Radish (Alternaria brassicae):
as §3, §4
These 2 liquids are mixed together so as to obtain a compound (I)/cyprodinil ratio equal to 0.2−0.5−1.
Radish plantules (Pernot variety) are cultivated in pots. When these plantules have reached the 2-leaf cotyledon stage, they are treated by spraying with a liquid comprising compounds (I) and (IIC), either individually or as a mixture in the ratios indicated above.
24 hours after treatment, contamination is carried out by spraying with an aqueous suspension of spores (containing 40,000 sp/cm^3) of Alternaria brassicae.
After this contamination, the treated and contaminated plantules are placed for 10 days at about 20° C. in an atmosphere of saturated humidity. […]
For this, the percentage of attack of the cotyledon leaves by the fungus is assessed visually, the said attack being recognizable by brown necrosis marks. From the degree of attack thus obtained (expressed in %), the efficacy is calculated according to the Abbott formula with reference to the degree of attack of the control. […]

Plasmopara viticola [5] = assay: In vivo greenhouse test of ternary composition against downy mildew of grapevine, treatment 24 h after contamination (Example 12); settings: grapevine Chardonnay, compound (I) alone, FIG. 9
Phytophthora infestans [6] = type: in vivo; settings: potato Bintje, FIG. 4
Phytophthora infestans [7] = type: in vivo; settings: potato Bintje lamellae, preventive 4 days, FIG. 3
[8] = contamination 4 days after treatment

## CSC1=N[C@@](C)(c2ccccc2)C(=O)N1Nc1ccccc1 [compound (I), (4S)-4-methyl-2-methylthio-4-phenyl-1-phenyl-amino-2-imidazolin-5-one]
Uncinula necator [1]; grapevine, under the test conditions
  efficacy when applied alone: no efficacy
Botrytis cinerea; grapevine leaves, under the test conditions
  efficacy when applied alone: no efficacy
Plasmopara viticola [2]; preventive 4 days
  dose alone which needs to be applied to obtain 90% efficacy: 8.2 mg/L
Phytophthora infestans [3]; [8]
  dose alone which needs to be applied to destroy 70% of the parasite: 36 mg/L
Uncinula necator [4]; grapevine, under the test conditions, 22 days
  efficacy when applied alone: no efficacy
Alternaria brassicae
  dose alone which needs to be applied to obtain 70% destruction of the parasite: 167 mg/L
Plasmopara viticola [5]
  dose alone which needs to be applied to obtain 70% destruction of the parasite: 36 mg/L
Phytophthora infestans [6]; [8]
  dose alone which needs to be applied to destroy 70% of the parasite: 177 mg/L
Phytophthora infestans [7]
  dose alone which needs to be applied to obtain 90% destruction of the parasite: 8.7 mg/L

## CCCN(CC)CC1COC2(CCC(C(C)(C)C)CC2)O1 (centres unmarked) [spiroxamine, 8-t-butyl-2-(N-ethyl-N-n-propylamino)methyl-1,4-dioxaspiro[4.5]decane]
Uncinula necator [1]; grapevine Chardonnay, read 15 days after contamination
  dose alone which needs to be applied to destroy 70% of the parasite: 6.6 g/ha
Uncinula necator [4]; grapevine Chardonnay, read 22 days after contamination
  dose alone which needs to be applied to destroy 70% of the parasite: 61 g/ha

## Cc1cc(C2CC2)nc(Nc2ccccc2)n1 [cyprodinil, 2-phenylamino-4-cyclopropyl-6-methyl-pyrimidine]
Botrytis cinerea; grapevine Chardonnay cut leaves, contamination 24 hours after treatment
  dose alone which needs to be applied to destroy 90% of the parasite: 73 mg/L
Alternaria brassicae
  dose alone which needs to be applied to obtain 70% destruction of the parasite: 178 mg/L

## CCCOC(=O)NCCCN(C)C [propamocarb, propyl 3-(dimethylamino)propyl carbamate]
Plasmopara viticola [2]; under the test conditions
  efficacy when applied alone: no efficacy
Phytophthora infestans [7]
  dose alone which needs to be applied to obtain 90% destruction of the parasite: 553 mg/L

## CSC(=O)c1cccc2nnsc12 [CGA 245704, S-methyl ester of 1,2,3-benzothiadiazole-7-carbothioic acid]
Phytophthora infestans [6]; under the test conditions
  efficacy when applied alone: no efficacy

## O=C([O-])c1ccccc1O.[Na+] [sodium salt of salicylic acid]
Phytophthora infestans [3]; under the test conditions
  efficacy when applied alone: no efficacy
